One assay has as its target Trypsin (Homo sapiens) (UniProt P07477+P07478+P35030). As to the kind of experiment: Activity of trypsin (unknown origin) assessed as enzyme-mediated compound hydrolysis by measuring increase in fluorescence at 10 uM incubated for 1 hr at 37 degC relative to control. The format is protein assay.
Assay [1] deals with NAD-dependent protein deacylase sirtuin-6 (Homo sapiens) (UniProt Q8N6T7). As to the kind of experiment: Inhibition of SIRT6 (unknown origin) at 300 uM using (DABCYL)ISGASE(MyK)DIVHSE(EDANS)G substrate in presence of NAD followed by 1 hr incubation with trypsin by FRET assay.
For assay [2], the target named is T1, NAD-dependent protein deacetylase sirtuin-1 (Homo sapiens) (UniProt Q96EB6).
T1 sequence (whole entry): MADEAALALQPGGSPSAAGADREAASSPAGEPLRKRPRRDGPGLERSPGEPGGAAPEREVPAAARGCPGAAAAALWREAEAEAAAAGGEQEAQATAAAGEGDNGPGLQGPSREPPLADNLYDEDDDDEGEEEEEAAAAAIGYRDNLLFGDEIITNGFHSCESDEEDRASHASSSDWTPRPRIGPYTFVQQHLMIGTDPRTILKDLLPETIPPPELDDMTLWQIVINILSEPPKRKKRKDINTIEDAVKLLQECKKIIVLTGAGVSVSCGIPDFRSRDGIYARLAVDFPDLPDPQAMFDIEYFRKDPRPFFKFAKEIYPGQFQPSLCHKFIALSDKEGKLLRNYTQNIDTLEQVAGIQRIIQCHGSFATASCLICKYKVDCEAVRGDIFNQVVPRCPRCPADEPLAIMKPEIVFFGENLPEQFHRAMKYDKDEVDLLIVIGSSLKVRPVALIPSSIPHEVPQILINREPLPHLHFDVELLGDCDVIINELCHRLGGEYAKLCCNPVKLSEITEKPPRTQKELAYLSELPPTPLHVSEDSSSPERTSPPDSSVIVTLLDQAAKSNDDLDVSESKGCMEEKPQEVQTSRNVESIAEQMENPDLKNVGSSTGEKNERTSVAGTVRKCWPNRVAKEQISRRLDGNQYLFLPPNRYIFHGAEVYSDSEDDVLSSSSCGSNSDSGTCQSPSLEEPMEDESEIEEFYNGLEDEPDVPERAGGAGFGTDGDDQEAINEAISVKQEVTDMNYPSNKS
As to the kind of experiment: Inhibition of SIRT1 (unknown origin) at 300 uM using (DABCYL)ISGASE(AcK)DIVHSE(EDANS)G substrate in presence of NAD followed by 1 hr incubation with trypsin by FRET assay.

Assay [3] has as its target NAD-dependent protein deacylase sirtuin-6 (Homo sapiens) (UniProt Q8N6T7). As to the kind of experiment: Activity of SIRT6 (unknown origin) assessed as enzyme-mediated compound hydrolysis at 10 uM incubated for 60 mins in presence of NAD followed by 1 hr incubation with trypsin.

The source made the active and inactive calls. No cut-off for these calls is given here. Peptide text beside a SMILES is read from it. * marks the point of attachment. X1 = CN(C)c1ccc(/N=N/c2ccc(C(=O)*)cc2)cc1; EDANS = O=S(=O)(O)c1cccc2c(NCCN*)cccc12; Myristoyl = CCCCCCCCCCCCCC(=O)*

Sequence of NAD-dependent protein deacylase sirtuin-6 (Homo sapiens) (Q8N6T7 whole entry): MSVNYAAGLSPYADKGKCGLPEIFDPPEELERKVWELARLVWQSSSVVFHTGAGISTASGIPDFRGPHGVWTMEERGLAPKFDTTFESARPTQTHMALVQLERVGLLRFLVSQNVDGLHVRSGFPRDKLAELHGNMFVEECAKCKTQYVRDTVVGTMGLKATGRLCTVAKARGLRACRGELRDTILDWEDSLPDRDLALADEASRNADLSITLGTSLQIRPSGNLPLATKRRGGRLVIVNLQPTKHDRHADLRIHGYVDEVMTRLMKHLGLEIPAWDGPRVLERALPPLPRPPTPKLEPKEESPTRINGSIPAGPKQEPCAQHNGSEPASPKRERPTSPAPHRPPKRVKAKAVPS

As for `CC[C@H](C)[C@H](NC(=O)c1ccc(/N=N/c2ccc(N(C)C)cc2)cc1)C(=O)N[C@@H](CO)C(=O)NCC(=O)N[C@@H](C)C(=O)N[C@@H](CO)C(=O)N[C@@H](CCC(=O)O)C(=O)N[C@@H](CCCCN)C(=O)N[C@@H](CC(=O)O)C(=O)N[C@H](C(=O)N[C@H](C(=O)N[C@@H](Cc1cnc[nH]1)C(=O)N[C@@H](CO)C(=O)N[C@@H](CCC(=O)NCCNc1cccc2c(S(=O)(=O)O)cccc12)C(=O)NCC(=O)O)C(C)C)[C@@H](C)CC` (HELM PEPTIDE1{[CN(C)c1ccc(/N=N/c2ccc(C(=O)[*:2])cc2)cc1].I.S.G.A.S.E.K.D.I.V.H.S.E.G}|CHEM1{[O=S(=O)(O)c1cccc2c(NCCN[*:1])cccc12]}$PEPTIDE1,CHEM1,14:R3-1:R1$$$V2.0), at Trypsin (Homo sapiens), the fold change (FC) is 15. As a reminder, the inhibition is how much of the control response was suppressed. With `NC(=O)c1cccnc1`, the inhibition in assay [1] was over 50%. Further, the inhibition entry in assay [2] is “Active”. As for `CC(NC(=O)c1ccccc1/N=C/c1c(O)ccc2ccccc12)c1ccccc1` (configuration not stated), the inhibition in assay [1] is under 50%.

`CCCCCCCCCCCCCC(=O)NCCCC[C@H](NC(=O)[C@H](CCC(=O)O)NC(=O)[C@H](CO)NC(=O)[C@H](C)NC(=O)CNC(=O)[C@H](CO)NC(=O)[C@@H](NC(=O)c1ccc(/N=N/c2ccc(N(C)C)cc2)cc1)[C@@H](C)CC)C(=O)N[C@@H](CC(=O)O)C(=O)N[C@H](C(=O)N[C@H](C(=O)N[C@@H](Cc1cnc[nH]1)C(=O)N[C@@H](CO)C(=O)N[C@@H](CCC(=O)NCCNc1cccc2c(S(=O)(=O)O)cccc12)C(=O)NCC(=O)O)C(C)C)[C@@H](C)CC` (X1-ISGASEK(Myristoyl)DIVHSE(EDANS)G-OH): the fold change (FC) in assay [3] was found to be 10. On to `O=C1CCc2c(ccc3ccccc23)O1`, for which, in assay [1], the inhibition is under 50%.

In the case of `N#C/C(=C\c1ccc(-c2cc(Cl)ccc2Cl)o1)C(=O)Nc1cccc2ncccc12`, the inhibition in assay [1] is under 50%.

The record behind these values is ChEMBL document CHEMBL3414509, “A FRET-based assay for screening SIRT6 modulators” (Eur J Med Chem, 2015).
